From BigSolDB 2.1

CNC(=O)NC
solubility (mole fraction)
Conditions | 288.15 K | 293.15 K | 298.15 K | 303.15 K | 308.15 K | 313.15 K | 318.15 K | 323.15 K | 328.15 K
in acetone | 0.129 | 0.152 | 0.177 | 0.202 | 0.228 | 0.261 | 0.301 | 0.339 | 0.376
in acetonitrile | 0.102 | 0.128 | 0.151 | 0.186 | 0.216 | 0.25 | 0.282 | 0.322 | 0.363
in ethyl acetate | 0.0302 | 0.0421 | 0.0608 | 0.0825 | 0.111 | 0.14 | 0.175 | 0.22 | 0.271
in isopropanol | 0.331 | 0.352 | 0.372 | 0.39 | 0.416 | 0.438 | 0.471 | 0.5 | 0.533
in n-butyl acetate | 0.0137 | 0.0205 | 0.0296 | 0.0408 | 0.0602 | 0.0834 | 0.111 | 0.148 | 0.195
in sec-butanol | 0.325 | 0.353 | 0.381 | 0.412 | 0.438 | 0.46 | 0.494 | 0.523 | 0.561
in water | 0.362 | 0.38 | 0.405 | 0.436 | 0.464 | 0.494 | 0.533 | 0.57 | 0.601
